Source: US20240091185A1, “COMPOSITION FOR IMPROVING COGNITIVE FUNCTION, AGENT FOR IMPROVING COGNITIVE FUNCTION, AND FOOD FOR IMPROVING COGNITIVE FUNCTION” (AJINOMOTO CO., INC., priority 2021, published 2024)

How the values were obtained:
Assay type in all cases: in vivo, mouse
[1] = tested on: learning and/or memory functions of C57Bl/6j mice (LPS-induced learning and/or memory disorder model); assay: Novel object recognition test in LPS-induced learning and/or memory disorder model (Experimental Example 1); conditions: 3 g/kg body weight oral once a day for 13 days; LPS 250 μg/kg i.p. day 4 to 10; Tukey; Example 1 p<0.05
Protocol: To the control LPS group was orally administered 10 mL of distilled water per kg of mouse body weight once a day for 13 consecutive days.
The agent of Comparative Example 2 was suspended in distilled water at a concentration of 0.3 g/mL, and 10 mL (3 g/kg body weight) was orally administered per kg of mouse body weight once a day for 13 consecutive days to the group to be administered with the agent of Comparative Example 2 (LPS+Gly3). […]
During the training trial, the ratio (%) of the time of contact with object A1 or A2 with a shorter contact time to the total time of contact with the two objects (A1 and A2) placed in the experimental arena was calculated.
During the retention trial, the ratio (%) of the time of contact with object B to the total time of contact with the two objects (A1 and B, or A2 and B) placed in the experimental arena was determined. […]

[2] = tested on: Family with sequence similarity 107 member a (Fam107a) gene; assay: Hippocampal gene expression level by RNA-seq (TPM), Fam107a; conditions: oral once a day for 13 days (Example 1 3 g/kg, Comp. Ex. 4 2 g/kg, Comp. Ex. 5 1 g/kg); Dunnett; p<0.05 for Example 1
Protocol: (§1) At that time, as comparison samples, 2 g of glycine was used as the agent of Comparative Example 4, and 1 g of L-serine was used as the agent of Comparative Example 5, and the action on gene expression in the mouse hippocampus was similarly examined.
(§2) The agent of Comparative Example 4 was suspended in 0.5 wt % methylcellulose aqueous solution at a concentration of 0.2 g/mL, and 10 mL (2 g/kg body weight) was orally administered per kg of mouse body weight once a day for 13 consecutive days to the group to be administered with the agent of Comparative Example 4 (LPS+Gly2).
(§3) The agent of Comparative Example 5 was suspended in 0.5 wt % methylcellulose aqueous solution at a concentration of 0.1 g/mL, and 10 mL (1 g/kg body weight) was orally administered per kg of mouse body weight once a day for 13 consecutive days to the group to be administered with the agent of Comparative Example 5 (LPS+L-Ser1).
(§4) Hippocampal tissue was collected from each group of mice that had been administered with each suspension or vehicle shown in Table 5 for 13 consecutive days, total RNA was extracted from each individual separately, and RNA sequencing (RNA-seq) was performed. […] Samples from individuals suspected of being contaminated at the time of tissue collection were excluded from analysis.

[3] = tested on: Galanin and GMAP prepropeptide (Gal) gene; assay: Hippocampal gene expression level by RNA-seq (TPM), Gal; conditions: oral once a day for 13 days (Example 1 3 g/kg, Comp. Ex. 4 2 g/kg, Comp. Ex. 5 1 g/kg); Dunnett; p<0.05 for Example 1
Protocol: as §1, §2, §3, §4

[4] = tested on: Sonic hedgehog (Shh) gene; assay: Hippocampal gene expression level by RNA-seq (TPM), Shh; conditions: oral once a day for 13 days (Example 1 3 g/kg, Comp. Ex. 4 2 g/kg, Comp. Ex. 5 1 g/kg); Dunnett; p<0.05 for Example 1
Protocol: as §1, §2, §3, §4

[5] = tested on: D-site of albumin promoter (albumin D-box) binding protein (Dbp) gene; assay: Hippocampal gene expression level by RNA-seq (TPM), Dbp; conditions: oral once a day for 13 days (Example 1 3 g/kg, Comp. Ex. 4 2 g/kg, Comp. Ex. 5 1 g/kg); Dunnett; p<0.05 for Example 1
Protocol: as §1, §2, §3, §4

[6] = tested on: Thyroid stimulating hormone receptor (TShr) gene; assay: Hippocampal gene expression level by RNA-seq (TPM), Tshr; conditions: oral once a day for 13 days (Example 1 3 g/kg, Comp. Ex. 4 2 g/kg, Comp. Ex. 5 1 g/kg); Dunnett; p<0.05 for Example 1
Protocol: as §1, §2, §3, §4

| Structure (SMILES) | RI value (%) during the retention trial, compared with the group orally administered with distilled water (LPS) [1] | expression of the Fam107a gene in hippocampus vs solvent alone (LPS) [2] | expression of the Gal gene in hippocampus vs solvent alone (LPS) [3] | expression of the Shh gene in hippocampus vs solvent alone (LPS) [4] | expression of the Dbp gene in hippocampus vs solvent alone (LPS) [5] | expression of the Tshr gene in hippocampus vs solvent alone (LPS) [6] |
| --- | --- | --- | --- | --- | --- | --- |
| NCC(=O)O [Comparative Example 2, glycine] | significant difference was not observed | – | – | – | – | – |
| NCC(=O)O [Comparative Example 4, glycine] | – | significant changes in the expression levels of genes were not observed | significant changes in the expression levels of genes were not observed | significant changes in the expression levels of genes were not observed | significant changes in the expression levels of genes were not observed | significant changes in the expression levels of genes were not observed |
| N[C@@H](CO)C(=O)O [Comparative Example 5, L-serine] | – | significant changes in the expression levels of genes were not observed | significant changes in the expression levels of genes were not observed | significant changes in the expression levels of genes were not observed | significant changes in the expression levels of genes were not observed | significant changes in the expression levels of genes were not observed |
